Data as given in US10654834B2 (Venenum Biodesign, LLC, priority 2016, dated 2020).

Target: T1, mouse TGR5 receptor (Mus musculus, UniProt Q80SS6)
T1 construct: host or cells: HEK293-EBNA (293 c18, ATCC CRL10852)
T1 sequence (Q80SS6 1-329): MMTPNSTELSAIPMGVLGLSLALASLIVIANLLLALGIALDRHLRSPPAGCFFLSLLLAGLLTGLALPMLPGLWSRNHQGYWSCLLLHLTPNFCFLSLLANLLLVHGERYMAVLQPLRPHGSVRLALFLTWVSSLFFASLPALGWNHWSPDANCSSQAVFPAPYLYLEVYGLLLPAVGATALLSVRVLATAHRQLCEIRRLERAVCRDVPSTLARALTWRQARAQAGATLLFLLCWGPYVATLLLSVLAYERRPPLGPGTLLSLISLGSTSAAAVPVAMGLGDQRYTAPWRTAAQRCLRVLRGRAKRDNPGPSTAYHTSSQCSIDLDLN
Test: Mouse TGR5 luminescent cAMP production assay (HEK293-EBNA cells, DiscoveRx cAMP XS+ kit)
Format: cell-based
Settings: HEK293-EBNA cells overexpressing mouse TGR5, luminescent cAMP assay; read-out: Mouse TGR5 Lum. cAMP Activity (EC50)
In short: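 HEK293-EBNA cells stably expressing mouse TGR5, resuspended in serum-free DMEM with 500 μM IBMX, were premixed 20 min with cAMP antibody, then exposed to half-log compound dilutions for 1 h at room temperature. cAMP was read by luminescent enzyme-fragment complementation (cAMP XS+) after overnight incubation; EC50 derived.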

EC50: < 100 nM
Compound: N#Cc1ccc(CCNC(=O)[C@@H]2CCCN2c2cc(N3CCC(CO)CC3)nc(C(F)(F)F)n2)cc1 [Compound 1, (S)—N-(4-cyanophenethyl)-1-(6-(4-(hydroxymethyl)piperidin-1-yl)-2-(trifluoromethyl)pyrimidin-4-yl)pyrrolidine-2-carboxamide]
